Paper PMC9030254, “Target Hopping from Protein Kinases to PXR: Identification of Small-Molecule Protein Kinase Inhibitors as Selective Modulators of Pregnane X Receptor from TüKIC Library” (Cells, 2022)

How the values were obtained:
Assay in all cases: Kinase profiling
Format in all cases: biochemical
BMPR1A = target: T1, BMPR1A (Homo sapiens, UniProt P36894)
T1 construct: purchased ProQinase (Freiburg, Germany)
Experimental: (§1) The analysis was performed by ProQinase (Freiburg, Germany).

TRKC = target: T2, TRKC (Homo sapiens, UniProt Q16288)
T2 construct: purchased ProQinase (Freiburg, Germany)
T2 sequence (Q16288 32-839): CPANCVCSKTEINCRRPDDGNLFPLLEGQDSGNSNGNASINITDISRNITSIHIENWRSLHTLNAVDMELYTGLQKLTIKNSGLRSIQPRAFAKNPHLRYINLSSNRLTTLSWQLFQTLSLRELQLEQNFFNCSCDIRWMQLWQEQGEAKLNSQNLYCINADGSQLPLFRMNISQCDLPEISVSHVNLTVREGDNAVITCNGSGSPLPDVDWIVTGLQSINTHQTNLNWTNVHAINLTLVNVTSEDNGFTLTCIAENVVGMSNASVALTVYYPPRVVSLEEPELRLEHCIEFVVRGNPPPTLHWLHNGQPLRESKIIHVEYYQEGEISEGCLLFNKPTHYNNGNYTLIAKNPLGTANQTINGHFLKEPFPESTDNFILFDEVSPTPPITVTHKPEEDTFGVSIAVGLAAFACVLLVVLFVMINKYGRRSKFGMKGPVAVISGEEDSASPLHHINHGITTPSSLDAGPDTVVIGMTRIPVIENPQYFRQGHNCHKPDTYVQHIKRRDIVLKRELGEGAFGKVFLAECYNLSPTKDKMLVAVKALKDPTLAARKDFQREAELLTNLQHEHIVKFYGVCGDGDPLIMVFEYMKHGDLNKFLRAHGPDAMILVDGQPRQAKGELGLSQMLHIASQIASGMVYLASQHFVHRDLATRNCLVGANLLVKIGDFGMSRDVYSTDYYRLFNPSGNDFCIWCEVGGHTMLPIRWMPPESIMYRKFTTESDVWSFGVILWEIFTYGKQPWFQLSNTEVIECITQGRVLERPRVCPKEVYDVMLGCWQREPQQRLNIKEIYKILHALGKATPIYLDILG
Experimental: as §1

CK1gamma2 = target: T3, CK1gamma2 (Homo sapiens, UniProt P78368)
T3 construct: purchased ProQinase (Freiburg, Germany)
Experimental: as §1

ACVR2A = target: T4, ACVR2A (Homo sapiens, UniProt P27037)
T4 construct: purchased ProQinase (Freiburg, Germany)
Experimental: as §1

FGFR2 = target: T5, FGFR2 (Homo sapiens, UniProt P21802)
T5 construct: purchased ProQinase (Freiburg, Germany)
Experimental: as §1

WNK1 = target: T6, WNK1 (Homo sapiens, UniProt Q9H4A3)
T6 construct: purchased ProQinase (Freiburg, Germany)
T6 sequence (Q9H4A3 whole entry): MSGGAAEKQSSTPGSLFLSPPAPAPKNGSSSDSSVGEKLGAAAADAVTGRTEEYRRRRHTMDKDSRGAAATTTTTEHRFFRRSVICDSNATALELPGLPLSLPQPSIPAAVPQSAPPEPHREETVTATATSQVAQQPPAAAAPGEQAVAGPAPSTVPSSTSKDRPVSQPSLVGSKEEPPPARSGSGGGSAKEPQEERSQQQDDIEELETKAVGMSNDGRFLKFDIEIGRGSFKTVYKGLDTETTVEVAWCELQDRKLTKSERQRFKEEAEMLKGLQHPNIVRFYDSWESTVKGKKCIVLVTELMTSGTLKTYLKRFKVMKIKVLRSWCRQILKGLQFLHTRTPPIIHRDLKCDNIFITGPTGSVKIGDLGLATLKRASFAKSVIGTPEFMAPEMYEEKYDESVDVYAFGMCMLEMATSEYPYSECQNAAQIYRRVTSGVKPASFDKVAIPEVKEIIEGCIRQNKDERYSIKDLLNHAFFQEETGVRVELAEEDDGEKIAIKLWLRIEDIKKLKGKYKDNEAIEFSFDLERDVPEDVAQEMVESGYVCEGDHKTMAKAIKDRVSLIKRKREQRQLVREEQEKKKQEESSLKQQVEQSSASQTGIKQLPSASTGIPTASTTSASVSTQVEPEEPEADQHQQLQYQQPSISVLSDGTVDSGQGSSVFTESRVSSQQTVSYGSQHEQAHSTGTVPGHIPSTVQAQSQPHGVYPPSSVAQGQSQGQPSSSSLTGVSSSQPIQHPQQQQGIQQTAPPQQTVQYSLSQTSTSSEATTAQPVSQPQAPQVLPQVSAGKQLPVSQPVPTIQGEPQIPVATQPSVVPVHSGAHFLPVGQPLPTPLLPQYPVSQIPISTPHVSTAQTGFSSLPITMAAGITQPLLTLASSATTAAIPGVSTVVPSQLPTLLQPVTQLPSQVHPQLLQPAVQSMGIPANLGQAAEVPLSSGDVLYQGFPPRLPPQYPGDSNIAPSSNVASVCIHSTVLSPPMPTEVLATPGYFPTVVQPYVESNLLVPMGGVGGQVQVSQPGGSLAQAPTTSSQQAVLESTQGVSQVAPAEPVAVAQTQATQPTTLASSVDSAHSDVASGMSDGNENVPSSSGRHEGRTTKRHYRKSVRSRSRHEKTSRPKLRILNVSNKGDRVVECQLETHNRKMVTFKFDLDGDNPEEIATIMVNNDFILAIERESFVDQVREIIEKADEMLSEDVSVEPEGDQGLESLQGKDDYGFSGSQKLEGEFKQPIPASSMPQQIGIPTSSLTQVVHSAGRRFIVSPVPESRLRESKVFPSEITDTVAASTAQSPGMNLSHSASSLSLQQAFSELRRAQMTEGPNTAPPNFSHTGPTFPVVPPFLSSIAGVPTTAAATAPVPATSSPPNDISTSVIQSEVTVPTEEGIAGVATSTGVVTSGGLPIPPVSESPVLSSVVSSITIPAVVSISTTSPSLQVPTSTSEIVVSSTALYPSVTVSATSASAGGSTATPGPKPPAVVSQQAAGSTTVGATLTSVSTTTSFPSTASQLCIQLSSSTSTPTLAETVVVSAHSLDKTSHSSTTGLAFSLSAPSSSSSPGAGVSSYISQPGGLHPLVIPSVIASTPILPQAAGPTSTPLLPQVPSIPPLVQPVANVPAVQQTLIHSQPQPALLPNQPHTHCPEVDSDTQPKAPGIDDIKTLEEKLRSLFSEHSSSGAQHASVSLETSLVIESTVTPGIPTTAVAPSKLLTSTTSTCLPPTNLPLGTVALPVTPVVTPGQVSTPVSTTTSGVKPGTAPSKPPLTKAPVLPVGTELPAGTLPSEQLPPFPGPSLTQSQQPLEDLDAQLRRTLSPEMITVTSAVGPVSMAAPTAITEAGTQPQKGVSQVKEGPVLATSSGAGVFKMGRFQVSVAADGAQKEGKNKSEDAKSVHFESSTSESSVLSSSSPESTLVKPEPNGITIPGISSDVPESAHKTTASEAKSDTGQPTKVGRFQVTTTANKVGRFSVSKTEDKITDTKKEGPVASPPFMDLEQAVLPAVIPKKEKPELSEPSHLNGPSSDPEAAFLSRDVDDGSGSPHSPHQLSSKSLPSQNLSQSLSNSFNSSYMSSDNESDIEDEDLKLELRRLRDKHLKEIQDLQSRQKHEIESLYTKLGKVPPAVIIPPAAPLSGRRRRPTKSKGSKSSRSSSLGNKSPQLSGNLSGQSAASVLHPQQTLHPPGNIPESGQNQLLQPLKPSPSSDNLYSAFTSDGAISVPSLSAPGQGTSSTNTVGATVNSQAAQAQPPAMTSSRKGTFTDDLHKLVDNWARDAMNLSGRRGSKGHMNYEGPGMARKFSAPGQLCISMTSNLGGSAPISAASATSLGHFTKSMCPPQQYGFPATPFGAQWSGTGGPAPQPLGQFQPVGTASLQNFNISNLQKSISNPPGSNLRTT
Experimental: as §1

MASTL = target: T7, MASTL (Homo sapiens, UniProt Q96GX5)
T7 construct: purchased ProQinase (Freiburg, Germany)
T7 sequence (Q96GX5 1-879): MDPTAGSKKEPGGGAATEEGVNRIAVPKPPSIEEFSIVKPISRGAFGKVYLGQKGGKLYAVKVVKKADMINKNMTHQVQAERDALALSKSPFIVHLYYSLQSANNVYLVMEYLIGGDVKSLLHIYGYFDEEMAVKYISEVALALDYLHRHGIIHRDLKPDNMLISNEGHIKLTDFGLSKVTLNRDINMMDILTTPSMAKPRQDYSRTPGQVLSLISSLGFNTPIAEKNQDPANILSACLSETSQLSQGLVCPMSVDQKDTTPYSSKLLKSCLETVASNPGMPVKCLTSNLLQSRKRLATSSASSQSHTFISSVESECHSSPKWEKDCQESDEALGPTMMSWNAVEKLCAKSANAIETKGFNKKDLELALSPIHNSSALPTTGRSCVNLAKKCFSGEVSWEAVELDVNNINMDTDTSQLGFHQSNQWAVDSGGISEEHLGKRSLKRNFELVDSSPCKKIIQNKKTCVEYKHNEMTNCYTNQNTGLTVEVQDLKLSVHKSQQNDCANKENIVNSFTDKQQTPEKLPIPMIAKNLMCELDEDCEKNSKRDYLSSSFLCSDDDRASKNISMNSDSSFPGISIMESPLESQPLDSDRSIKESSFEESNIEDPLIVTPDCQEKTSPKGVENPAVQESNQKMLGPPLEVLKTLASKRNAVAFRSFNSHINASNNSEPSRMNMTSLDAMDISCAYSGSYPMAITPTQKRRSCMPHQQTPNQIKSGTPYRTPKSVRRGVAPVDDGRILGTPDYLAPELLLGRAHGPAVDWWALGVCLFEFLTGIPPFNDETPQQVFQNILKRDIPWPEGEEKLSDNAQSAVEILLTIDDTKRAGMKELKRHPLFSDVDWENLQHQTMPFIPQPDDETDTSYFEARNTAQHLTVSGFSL
Experimental: as §1

CDK6/CycD2 = target: T8, CDK6/CycD2 (Homo sapiens, UniProt Q00534)
T8 construct: purchased ProQinase (Freiburg, Germany)
Experimental: as §1

CDK16/CycY = target: T9, CDK16/CycY (Homo sapiens, UniProt Q00536)
T9 construct: purchased ProQinase (Freiburg, Germany)
T9 sequence (Q00536 whole entry): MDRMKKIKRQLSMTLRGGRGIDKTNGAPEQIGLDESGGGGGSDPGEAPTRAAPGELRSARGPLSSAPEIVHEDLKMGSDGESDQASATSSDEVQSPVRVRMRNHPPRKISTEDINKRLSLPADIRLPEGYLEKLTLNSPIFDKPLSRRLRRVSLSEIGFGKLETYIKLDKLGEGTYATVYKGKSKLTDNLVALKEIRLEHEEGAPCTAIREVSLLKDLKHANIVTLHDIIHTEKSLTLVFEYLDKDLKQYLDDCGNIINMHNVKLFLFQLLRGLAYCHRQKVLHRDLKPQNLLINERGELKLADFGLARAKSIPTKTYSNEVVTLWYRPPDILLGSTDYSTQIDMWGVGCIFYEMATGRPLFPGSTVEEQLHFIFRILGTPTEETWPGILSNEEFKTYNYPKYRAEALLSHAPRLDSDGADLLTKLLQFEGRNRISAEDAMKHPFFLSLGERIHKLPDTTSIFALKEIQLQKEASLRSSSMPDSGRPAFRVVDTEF
T9 sequence (Q8ND76 whole entry partner): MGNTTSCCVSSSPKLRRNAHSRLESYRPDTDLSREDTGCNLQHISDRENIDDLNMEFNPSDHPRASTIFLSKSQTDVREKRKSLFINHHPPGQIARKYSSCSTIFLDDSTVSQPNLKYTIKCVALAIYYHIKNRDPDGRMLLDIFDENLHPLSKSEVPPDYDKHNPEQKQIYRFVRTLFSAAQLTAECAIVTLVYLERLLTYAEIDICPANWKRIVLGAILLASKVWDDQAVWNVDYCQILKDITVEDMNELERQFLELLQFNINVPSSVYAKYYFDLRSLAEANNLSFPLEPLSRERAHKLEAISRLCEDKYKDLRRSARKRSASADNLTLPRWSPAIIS
Experimental: as §1

FYN = target: T10, FYN (Homo sapiens, UniProt P06241)
T10 construct: purchased ProQinase (Freiburg, Germany)
Experimental: as §1

CDK8/CycC = target: T11, CDK8/CycC (Homo sapiens, UniProt P49336)
T11 construct: purchased ProQinase (Freiburg, Germany)
T11 sequence (P49336 whole entry): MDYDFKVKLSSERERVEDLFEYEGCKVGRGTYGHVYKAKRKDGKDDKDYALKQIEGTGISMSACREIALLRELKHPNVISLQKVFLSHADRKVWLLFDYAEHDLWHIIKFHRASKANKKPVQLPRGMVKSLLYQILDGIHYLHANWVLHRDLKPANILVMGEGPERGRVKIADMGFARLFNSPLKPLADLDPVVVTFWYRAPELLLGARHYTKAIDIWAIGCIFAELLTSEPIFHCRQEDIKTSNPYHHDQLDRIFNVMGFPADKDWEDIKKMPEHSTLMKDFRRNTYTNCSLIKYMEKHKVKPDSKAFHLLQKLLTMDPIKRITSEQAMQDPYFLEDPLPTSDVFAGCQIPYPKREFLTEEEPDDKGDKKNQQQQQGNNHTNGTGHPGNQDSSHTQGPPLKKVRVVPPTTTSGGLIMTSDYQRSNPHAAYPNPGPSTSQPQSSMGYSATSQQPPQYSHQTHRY
T11 sequence (P24863 whole entry partner): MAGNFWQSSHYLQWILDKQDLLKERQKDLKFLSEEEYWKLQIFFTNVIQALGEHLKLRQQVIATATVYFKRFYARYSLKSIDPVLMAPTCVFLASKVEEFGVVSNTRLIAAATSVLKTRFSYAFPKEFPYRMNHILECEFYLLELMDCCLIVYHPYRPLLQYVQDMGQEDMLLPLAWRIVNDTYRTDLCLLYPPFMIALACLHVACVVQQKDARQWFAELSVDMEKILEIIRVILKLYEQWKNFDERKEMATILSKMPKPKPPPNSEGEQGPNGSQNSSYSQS
Experimental: as §1

RIPK4 = target: T12, RIPK4 (Homo sapiens, UniProt P57078)
T12 construct: purchased ProQinase (Freiburg, Germany)
T12 sequence (P57078 1-832): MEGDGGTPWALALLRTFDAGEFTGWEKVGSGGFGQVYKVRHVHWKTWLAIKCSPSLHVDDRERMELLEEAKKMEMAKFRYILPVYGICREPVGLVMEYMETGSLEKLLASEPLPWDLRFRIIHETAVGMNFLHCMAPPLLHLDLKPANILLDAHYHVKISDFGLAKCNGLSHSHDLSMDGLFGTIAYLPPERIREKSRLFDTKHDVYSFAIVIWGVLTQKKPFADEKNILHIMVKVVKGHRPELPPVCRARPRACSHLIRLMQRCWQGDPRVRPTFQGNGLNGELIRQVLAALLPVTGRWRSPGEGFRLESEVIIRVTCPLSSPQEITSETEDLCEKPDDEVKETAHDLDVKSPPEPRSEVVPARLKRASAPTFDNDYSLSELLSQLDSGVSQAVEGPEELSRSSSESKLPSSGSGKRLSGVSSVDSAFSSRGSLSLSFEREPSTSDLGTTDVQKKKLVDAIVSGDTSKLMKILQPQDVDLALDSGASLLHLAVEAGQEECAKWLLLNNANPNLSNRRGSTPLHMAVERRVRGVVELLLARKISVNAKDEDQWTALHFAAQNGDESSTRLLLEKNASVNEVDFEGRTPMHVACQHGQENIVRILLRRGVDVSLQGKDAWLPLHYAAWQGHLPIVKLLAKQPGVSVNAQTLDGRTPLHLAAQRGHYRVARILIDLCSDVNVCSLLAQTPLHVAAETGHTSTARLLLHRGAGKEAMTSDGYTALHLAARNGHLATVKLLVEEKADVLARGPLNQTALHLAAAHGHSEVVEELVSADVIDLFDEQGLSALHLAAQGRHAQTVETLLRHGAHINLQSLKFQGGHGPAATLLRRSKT
Experimental: as §1

MAP3K7/MAP3K7IP1 = target: T13, MAP3K7/MAP3K7IP1 (Homo sapiens, UniProt O43318)
T13 construct: purchased ProQinase (Freiburg, Germany)
T13 sequence (O43318 1-303 limits assumed): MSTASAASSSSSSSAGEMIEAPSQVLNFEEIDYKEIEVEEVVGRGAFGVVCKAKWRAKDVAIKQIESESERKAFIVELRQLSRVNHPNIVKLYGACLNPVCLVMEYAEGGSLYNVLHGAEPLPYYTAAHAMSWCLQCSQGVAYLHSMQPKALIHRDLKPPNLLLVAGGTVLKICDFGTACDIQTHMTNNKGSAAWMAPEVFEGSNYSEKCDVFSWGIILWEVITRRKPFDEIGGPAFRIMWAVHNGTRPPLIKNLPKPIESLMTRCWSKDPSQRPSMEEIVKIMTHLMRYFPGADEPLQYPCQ
Experimental: as §1

| SMILES | Residual activity (BMPR1A; 1.0E-05 M) | Residual activity (BMPR1A; 1.0E-06 M) | Residual activity (TRKC; 1.0E-05 M) | Residual activity (TRKC; 1.0E-06 M) | Residual activity (CK1gamma2; 1.0E-05 M) | Residual activity (CK1gamma2; 1.0E-06 M) | Residual activity (ACVR2A; 1.0E-05 M) | Residual activity (ACVR2A; 1.0E-06 M) | Residual activity (FGFR2; 1.0E-05 M) | Residual activity (FGFR2; 1.0E-06 M) | Residual activity (WNK1; 1.0E-05 M) | Residual activity (WNK1; 1.0E-06 M) | Residual activity (MASTL; 1.0E-05 M) | Residual activity (MASTL; 1.0E-06 M) | Residual activity (CDK6/CycD2; 1.0E-05 M) | Residual activity (CDK6/CycD2; 1.0E-06 M) | Residual activity (CDK16/CycY; 1.0E-05 M) | Residual activity (CDK16/CycY; 1.0E-06 M) | Residual activity (FYN; 1.0E-05 M) | Residual activity (FYN; 1.0E-06 M) | also measured |
| --- | --- | --- | --- | --- | --- | --- | --- | --- | --- | --- | --- | --- | --- | --- | --- | --- | --- | --- | --- | --- | --- |
| O=C(Cc1ccccc1)Nc1ccc(F)c(Nc2ccc3c(c2)CCCCC3=O)c1 [Compound 100] | 82 % of control | 101 % of control | 89 % of control | 109 % of control | 114 % of control | 104 % of control | 95 % of control | 89 % of control | 51 % of control | 90 % of control | 97 % of control | 99 % of control | 92 % of control | 99 % of control | 97 % of control | 97 % of control | 101 % of control | 99 % of control | 55 % of control | 90 % of control | Residual activity (CDK8/CycC; 1.0E-05 M): 60 % of control; Residual activity (CDK8/CycC; 1.0E-06 M): 82 % of control; Residual activity (RIPK4; 1.0E-05 M): 98 % of control; Residual activity (RIPK4; 1.0E-06 M): 103 % of control; Residual activity (MAP3K7/MAP3K7IP1; 1.0E-05 M): 91 % of control; Residual activity (MAP3K7/MAP3K7IP1; 1.0E-06 M): 88 % of control |
| O=C(Nc1ccc(F)c(Nc2ccc3c(c2)CCCCC3=O)c1)c1cccc(F)c1 [Compound 109] | 88 % of control | 92 % of control | 97 % of control | 112 % of control | 70 % of control | 84 % of control | 108 % of control | 99 % of control | 74 % of control | 97 % of control | 94 % of control | 93 % of control | 99 % of control | 94 % of control | 94 % of control | 105 % of control | 100 % of control | 96 % of control | 83 % of control | 104 % of control | Residual activity (CDK8/CycC; 1.0E-05 M): 61 % of control; Residual activity (CDK8/CycC; 1.0E-06 M): 79 % of control; Residual activity (RIPK4; 1.0E-05 M): 100 % of control; Residual activity (RIPK4; 1.0E-06 M): 103 % of control; Residual activity (MAP3K7/MAP3K7IP1; 1.0E-05 M): 91 % of control; Residual activity (MAP3K7/MAP3K7IP1; 1.0E-06 M): 91 % of control |
